Measured values from ChEMBL document CHEMBL1143999, “A new generation of adenosine receptor antagonists: from di- to trisubstituted aminopyrimidines” (Bioorg Med Chem, 2008).

How the values were obtained:
Adenosine receptor A2a [1] = molecular target: T1, Adenosine receptor A2a (Homo sapiens, UniProt P29274); assay: biochemical
[2] = molecular target: T2, Adenosine receptor A1 (Homo sapiens) (UniProt P30542); assay: (§1) Activity at human adenosine A1 receptor expressed in CHO cells assessed as inhibition of CPA-induced decrease in forskolin-stimulated cAMP production by TR-FRET assay; assay type: functional, cell-based
T2 sequence (whole entry): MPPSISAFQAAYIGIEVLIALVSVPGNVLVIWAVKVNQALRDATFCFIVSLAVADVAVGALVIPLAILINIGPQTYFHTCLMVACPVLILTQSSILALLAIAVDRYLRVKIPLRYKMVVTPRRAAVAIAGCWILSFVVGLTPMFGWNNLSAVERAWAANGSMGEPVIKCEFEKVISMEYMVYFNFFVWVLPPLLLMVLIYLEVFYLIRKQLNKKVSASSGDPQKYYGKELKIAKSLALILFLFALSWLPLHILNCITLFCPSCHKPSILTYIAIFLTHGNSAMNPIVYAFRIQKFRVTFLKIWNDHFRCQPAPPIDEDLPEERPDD

Adenosine receptor A1 [3] = molecular target: T3, Adenosine receptor A1 (Homo sapiens, UniProt P30542); assay: as §1; assay type: functional, cell-based
T3 sequence (P30542 whole entry): T2 sequence (whole entry)

Adenosine receptor A1 [4] = molecular target: T3, Adenosine receptor A1; assay: biochemical
Adenosine receptor A3 = molecular target: T4, Adenosine receptor A3 (Homo sapiens, UniProt P0DMS8); assay: biochemical
T4 sequence (P0DMS8 whole entry): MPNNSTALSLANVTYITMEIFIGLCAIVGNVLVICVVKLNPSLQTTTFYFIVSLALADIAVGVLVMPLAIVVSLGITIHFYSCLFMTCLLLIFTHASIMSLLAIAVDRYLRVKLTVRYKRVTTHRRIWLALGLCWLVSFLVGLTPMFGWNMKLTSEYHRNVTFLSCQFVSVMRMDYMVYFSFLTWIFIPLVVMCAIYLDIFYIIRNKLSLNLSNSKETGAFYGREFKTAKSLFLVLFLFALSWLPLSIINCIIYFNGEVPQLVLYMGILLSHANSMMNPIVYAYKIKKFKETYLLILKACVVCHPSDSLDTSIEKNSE
Description: Displacement of [3H]AB-MECA from human adenosine A3 receptor expressed in HEK293 cells

Adenosine receptor A2a [5] = molecular target: T1, Adenosine receptor A2a; assay: Displacement of [3H]ZM-241385 from human adenosine A2A receptor expressed in HEK293 cells at 1 uM; assay type: cell-based
[6] = molecular target: T2, Adenosine receptor A1 (Homo sapiens); assay: Displacement of [3H]DPCPX from human adenosine A1 receptor expressed in CHO cells at 1 uM; assay type: cell-based

T1 sequence (P29274 whole entry): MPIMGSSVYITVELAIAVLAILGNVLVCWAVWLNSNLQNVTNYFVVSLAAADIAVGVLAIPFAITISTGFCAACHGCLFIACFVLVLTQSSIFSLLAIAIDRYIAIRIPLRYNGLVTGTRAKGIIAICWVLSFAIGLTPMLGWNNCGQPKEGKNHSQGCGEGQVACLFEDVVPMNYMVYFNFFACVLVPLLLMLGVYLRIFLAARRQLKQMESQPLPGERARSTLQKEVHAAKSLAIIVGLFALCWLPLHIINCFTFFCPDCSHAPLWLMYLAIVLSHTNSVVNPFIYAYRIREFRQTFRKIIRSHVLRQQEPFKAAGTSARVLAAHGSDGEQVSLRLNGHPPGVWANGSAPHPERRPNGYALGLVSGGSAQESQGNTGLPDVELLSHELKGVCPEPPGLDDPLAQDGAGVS

SMILES	Ki (Adenosine receptor A2a [1]) [nM]	Ki (Adenosine receptor A1 [4]) [nM]	also measured
N#Cc1c(-c2ccccc2)nc(N)nc1-c1ccc2c(c1)OCO2	5.2	–	–
N#Cc1c(NC(=O)C2CCCC2)nc(-c2ccccc2)nc1-c1ccc2c(c1)OCO2	–	–	Kb [2]: 28 nM; IC50 (Adenosine receptor A1 [3]): 1400 nM
N#Cc1c(NC(=O)C2CC2)nc(-c2ccccc2)nc1-c1ccccc1	49.8	27.9	–
CCC(CC)C(=O)Nc1nc(-c2ccccc2)c(C#N)c(-c2ccccc2)n1	54.5	6.4	–
CCC(CC)C(=O)Nc1cc(-c2ccc3c(c2)OCO3)nc(-c2ccccc2)n1	574	27.9	Ki (Adenosine receptor A3): 634 nM
CCCC(=O)Nc1nc(-c2ccccc2)nc(-c2ccc3c(c2)OCO3)c1C#N	–	13.4	Activity (Adenosine receptor A2a [5]): 23%
OC[C@H]1O[C@@H](n2cnc3c(NC4CCCC4)ncnc32)[C@H](O)[C@@H]1O [N6-CYCLOPENTYLADENOSINE]	1650	–	–
CCCC(=O)Nc1nc(-c2ccccc2)nc(-c2ccccc2)c1C#N	69.5	12.6	–
N#Cc1c(-c2ccccc2)nc(NC(=O)C2CCCC2)nc1-c1ccccc1	159	1.2	Kb [2]: 3 nM; IC50 (Adenosine receptor A1 [3]): 150 nM
CCC(CC)C(=O)Nc1nc(-c2ccccc2)cc(-c2ccc3c(c2)OCO3)n1	–	17.6	Activity (Adenosine receptor A2a [5]): 33%
N#Cc1c(N)nc(-c2ccccc2)nc1-c1ccccc1	19	10.8	–
N#Cc1c(NC(=O)C2CCCC2)nc(-c2ccccc2)nc1-c1ccccc1	280	5.3	–
CCCC(=O)Nc1cc(-c2ccc3c(c2)OCO3)nc(-c2ccccc2)n1	222	6.8	Ki (Adenosine receptor A3): 53.9 nM
Nc1nc(-c2ccccc2)cc(-c2ccc3c(c2)OCO3)n1	381	–	–
O=C(Nc1cc(-c2ccc3c(c2)OCO3)nc(-c2ccccc2)n1)C1CCCC1	339	17.3	Ki (Adenosine receptor A3): 186 nM
N#Cc1c(-c2ccccc2)nc(NC(=O)c2ccc(Cl)c(Cl)c2)nc1-c1ccccc1	–	–	Activity [6]: 58%; Activity (Adenosine receptor A2a [5]): 35%
N#Cc1c(-c2ccccc2)nc(NC(=O)c2ccccc2)nc1-c1ccccc1	–	–	Activity [6]: 38%; Activity (Adenosine receptor A2a [5]): 48%

SMILES	Ki (Adenosine receptor A2a [1]) [nM]	Ki (Adenosine receptor A1 [4]) [nM]	also measured
CCCC(=O)Nc1nc(-c2ccccc2)c(C#N)c(-c2ccc3c(c2)OCO3)n1	21.3	8.3	–
N#Cc1c(-c2ccccc2)nc(NC(=O)C2CC2)nc1-c1ccccc1	45.5	9.4	–
N#Cc1c(-c2ccccc2)nc(N)nc1-c1ccccc1	22.7	–	–
CCC(CC)C(=O)Nc1nc(-c2ccccc2)nc(-c2ccc3c(c2)OCO3)c1C#N	–	18.4	Activity (Adenosine receptor A2a [5]): 0%
O=C(Nc1nc(-c2ccccc2)cc(-c2ccc3c(c2)OCO3)n1)C1CCCC1	–	8.1	Activity (Adenosine receptor A2a [5]): 26%
CC(C)C(=O)Nc1nc(-c2ccccc2)c(C#N)c(-c2ccccc2)n1	35.3	2.9	–
COc1ccc(C(=O)Nc2nc(-c3ccccc3)c(C#N)c(-c3ccccc3)n2)cc1	300	102	–
CCCC(=O)Nc1nc(-c2ccccc2)c(C#N)c(-c2ccccc2)n1	48.2	2.9	–
N#Cc1c(-c2ccccc2)nc(NC(=O)c2ccc(Cl)cc2)nc1-c1ccccc1	32.9	92.3	–
N#Cc1c(-c2ccccc2)nc(NC(=O)C2CCCC2)nc1-c1ccc2c(c1)OCO2	27.2	2.8	–
O=C(Nc1cc(-c2ccc3c(c2)OCO3)nc(-c2ccccc2)n1)C1CC1	69.2	13	Ki (Adenosine receptor A3): 30.7 nM
Cc1ccc(C(=O)Nc2nc(-c3ccccc3)c(C#N)c(-c3ccccc3)n2)cc1	158	115	–
N#Cc1c(N)nc(-c2ccccc2)nc1-c1ccc2c(c1)OCO2	44.3	4.9	–
N#Cc1c(-c2ccccc2)nc(NC(=O)c2ccco2)nc1-c1ccccc1	–	–	Activity [6]: 26%; Activity (Adenosine receptor A2a [5]): 42%
CCCC(=O)Nc1nc(-c2ccccc2)cc(-c2ccc3c(c2)OCO3)n1	–	43	Activity (Adenosine receptor A2a [5]): 8%
Nc1nc(-c2ccccc2)cc(-c2ccccc2)n1	–	17.7	–
